Where two headings read alike, the source gives them in different places. Residues, ends and D or L forms follow the SMILES beside them.
Experiments:
[1] = molecular target: HLA-DR4 (DRB1*0401) molecules (Homo sapiens, UniProt P01903+P01911, A100K/A169T/F76Y/I96L/K127E/L162R/M171V/N62H/P40V/Q125Y/R42H/S133A/S149N/S66Y/V115G/V209L/W38E); test: Competitive binding assay with recombinant water-soluble HLA-DR4
[2] = molecular target: HLA-DR1 (DRB1*0101) molecules (Homo sapiens, UniProt P01903+P01911, A100R/D57E/F55L/F60I/F76Y/I96L/L162R/M171V/P40L/Q125E/R42F/V115G/Y59C); test: Competitive binding assay with recombinant water-soluble HLA-DR1
[3] = Affinity for HLA-DR4 (DRB1*0401) molecules determined by competition with biotinylated competitor HA 306-318, biotinylated competitor HA306-318
[4] = Affinity for HLA-DR1 (DRB1*0101) molecules determined by competition with biotinylated competitor HA 306-318, biotinylated competitor HA306-318
[5] = biotinylated competitor YEAK, read-out: Affinity for HLA-DR4 (DRB1*0401) molecules determined by competition with biotinylated competitor YEAK
[6] = biotinylated competitor YEAK, read-out: Affinity for HLA-DR1 (DRB1*0101) molecules determined by competition with biotinylated competitor YEAK

| SMILES | IC50 [1, 3] | IC50 [2, 4] | IC50 [1, 5] | IC50 [2, 6] |
| --- | --- | --- | --- | --- |
| C[C@H](N)C(=O)N[C@@H](C)C(=O)N[C@@H](CCC(=O)O)C(=O)N[C@@H](Cc1ccc(O)cc1)C(=O)N[C@@H](CCCCN)C(=O)N[C@@H](C)C(=O)N[C@@H](C)C(=O)N[C@@H](C)C(=O)N[C@@H](C)C(=O)N[C@@H](C)C(=O)N[C@@H](C)C(=O)N[C@@H](C)C(=O)N[C@@H](C)C(=O)N[C@@H](C)C(=O)N[C@@H](C)C(=O)O [compound 26] | 1.8 µM |  |  |  |
| C[C@H](N)C(=O)N[C@@H](Cc1ccc(O)cc1)C(=O)N[C@@H](CCCCN)C(=O)N[C@@H](C)C(=O)N[C@@H](CCC(=O)O)C(=O)N[C@@H](C)C(=O)N[C@@H](C)C(=O)N[C@@H](C)C(=O)N[C@@H](C)C(=O)N[C@@H](C)C(=O)N[C@@H](C)C(=O)N[C@@H](C)C(=O)N[C@@H](C)C(=O)N[C@@H](C)C(=O)N[C@@H](C)C(=O)O [compound 35] | 1.3 µM |  |  |  |
| C[C@H](NC(=O)[C@H](C)NC(=O)[C@H](C)NC(=O)[C@H](C)NC(=O)[C@H](CCCCN)NC(=O)[C@H](C)NC(=O)[C@H](C)NC(=O)[C@H](C)NC(=O)[C@H](C)NC(=O)[C@H](C)NC(=O)[C@H](C)NC(=O)[C@H](Cc1ccc(O)cc1)NC(=O)[C@H](CCCCN)NC(=O)[C@H](C)NC(=O)[C@@H](N)CCC(=O)O)C(=O)O [compound 18] (H-EAKYAAAAAAKAAAA-OH) | 4.4 µM | 33 µM | 3 µM |  |
| C[C@H](N)C(=O)N[C@@H](C)C(=O)N[C@@H](CCCCN)C(=O)N[C@@H](Cc1ccc(O)cc1)C(=O)N[C@@H](C)C(=O)N[C@@H](CCC(=O)O)C(=O)N[C@@H](C)C(=O)N[C@@H](C)C(=O)N[C@@H](C)C(=O)N[C@@H](C)C(=O)N[C@@H](CCCCN)C(=O)N[C@@H](C)C(=O)N[C@@H](C)C(=O)N[C@@H](C)C(=O)N[C@@H](C)C(=O)O [compound 15] (H-AAKYAEAAAAKAAAA-OH) | 1.8 µM | 42 µM | < 1 µM | 16 µM |
| C[C@H](N)C(=O)N[C@@H](CCCCN)C(=O)N[C@@H](CCCCN)C(=O)N[C@@H](Cc1ccc(O)cc1)C(=O)N[C@@H](CCC(=O)O)C(=O)N[C@@H](C)C(=O)N[C@@H](C)C(=O)N[C@@H](C)C(=O)N[C@@H](C)C(=O)N[C@@H](C)C(=O)N[C@@H](C)C(=O)N[C@@H](C)C(=O)N[C@@H](C)C(=O)N[C@@H](C)C(=O)N[C@@H](C)C(=O)O [compound 21] | 2.2 µM |  |  |  |
| C[C@H](NC(=O)[C@H](C)NC(=O)[C@H](C)NC(=O)[C@H](C)NC(=O)[C@H](CCCCN)NC(=O)[C@H](C)NC(=O)[C@H](C)NC(=O)[C@H](C)NC(=O)[C@H](C)NC(=O)[C@H](C)NC(=O)[C@H](C)NC(=O)[C@H](Cc1ccc(O)cc1)NC(=O)[C@H](C)NC(=O)[C@H](C)NC(=O)[C@@H](N)CCC(=O)O)C(=O)O [compound 16] (H-EAAYAAAAAAKAAAA-OH) | 5 µM |  |  |  |
| C[C@H](N)C(=O)N[C@@H](CCCCN)C(=O)N[C@@H](CCC(=O)O)C(=O)N[C@@H](Cc1ccc(O)cc1)C(=O)N[C@@H](C)C(=O)N[C@@H](C)C(=O)N[C@@H](C)C(=O)N[C@@H](C)C(=O)N[C@@H](C)C(=O)N[C@@H](C)C(=O)N[C@@H](CCCCN)C(=O)N[C@@H](C)C(=O)N[C@@H](C)C(=O)N[C@@H](C)C(=O)N[C@@H](C)C(=O)O [compound 7] (H-AKEYAAAAAAKAAAA-OH) | 4.5 µM | 19 µM |  |  |
| C[C@H](N)C(=O)N[C@@H](CCCCN)C(=O)N[C@@H](Cc1ccc(O)cc1)C(=O)N[C@@H](C)C(=O)N[C@@H](CCC(=O)O)C(=O)N[C@@H](C)C(=O)N[C@@H](C)C(=O)N[C@@H](C)C(=O)N[C@@H](C)C(=O)N[C@@H](C)C(=O)N[C@@H](C)C(=O)N[C@@H](C)C(=O)N[C@@H](C)C(=O)N[C@@H](C)C(=O)N[C@@H](C)C(=O)O [compound 36] | 3 µM |  |  |  |
| C[C@H](N)C(=O)N[C@@H](CCC(=O)O)C(=O)N[C@@H](CCC(=O)O)C(=O)N[C@@H](Cc1ccc(O)cc1)C(=O)N[C@@H](C)C(=O)N[C@@H](C)C(=O)N[C@@H](C)C(=O)N[C@@H](C)C(=O)N[C@@H](C)C(=O)N[C@@H](C)C(=O)N[C@@H](CCCCN)C(=O)N[C@@H](C)C(=O)N[C@@H](C)C(=O)N[C@@H](C)C(=O)N[C@@H](C)C(=O)O [compound 11] | 2 µM |  |  |  |
| CC(C)C[C@H](NC(=O)[C@H](CCCCN)NC(=O)[C@H](CC(C)C)NC(=O)[C@@H](NC(=O)[C@H](CC(N)=O)NC(=O)[C@H](CCC(N)=O)NC(=O)[C@H](CCCCN)NC(=O)[C@@H](NC(=O)[C@H](Cc1ccc(O)cc1)NC(=O)[C@H](CCCCN)NC(=O)[C@@H]1CCCN1C(=O)[C@H](C)N)C(C)C)[C@@H](C)O)C(=O)N[C@@H](C)C(=O)N[C@H](C(=O)N[C@@H](C)C(=O)O)[C@@H](C)O [compound 4] | 26 µM | 13 µM | 8.2 µM | 3.3 µM |
| C[C@H](NC(=O)[C@H](C)NC(=O)[C@H](C)NC(=O)[C@H](C)NC(=O)[C@H](CCCCN)NC(=O)[C@H](C)NC(=O)[C@H](C)NC(=O)[C@H](C)NC(=O)[C@H](C)NC(=O)[C@H](C)NC(=O)[C@H](C)NC(=O)[C@H](Cc1ccc(O)cc1)NC(=O)[C@H](C)NC(=O)[C@H](CCCCN)NC(=O)[C@@H](N)CCC(=O)O)C(=O)O [compound 13] (H-EKAYAAAAAAKAAAA-OH) | 3.3 µM |  |  |  |
| C[C@H](N)C(=O)N[C@@H](C)C(=O)N[C@@H](C)C(=O)N[C@@H](Cc1ccc(O)cc1)C(=O)N[C@@H](C)C(=O)N[C@@H](C)C(=O)N[C@@H](C)C(=O)N[C@@H](C)C(=O)N[C@@H](C)C(=O)N[C@@H](C)C(=O)N[C@@H](CCCCN)C(=O)N[C@@H](C)C(=O)N[C@@H](C)C(=O)N[C@@H](C)C(=O)N[C@@H](C)C(=O)O [compound 5] (H-AAAYAAAAAAKAAAA-OH) | 7 µM |  |  |  |
| C[C@H](N)C(=O)N[C@@H](C)C(=O)N[C@@H](CCCCN)C(=O)N[C@@H](Cc1ccc(O)cc1)C(=O)N[C@@H](CCC(=O)O)C(=O)N[C@@H](C)C(=O)N[C@@H](C)C(=O)N[C@@H](C)C(=O)N[C@@H](C)C(=O)N[C@@H](C)C(=O)N[C@@H](CCCCN)C(=O)N[C@@H](C)C(=O)N[C@@H](C)C(=O)N[C@@H](C)C(=O)N[C@@H](C)C(=O)O [compound 14] (H-AAKYEAAAAAKAAAA-OH) | 4 µM |  |  |  |
| C[C@H](N)C(=O)N[C@@H](C)C(=O)N[C@@H](CCC(=O)O)C(=O)N[C@@H](Cc1ccc(O)cc1)C(=O)N[C@@H](C)C(=O)N[C@@H](C)C(=O)N[C@@H](C)C(=O)N[C@@H](C)C(=O)N[C@@H](C)C(=O)N[C@@H](C)C(=O)N[C@@H](CCCCN)C(=O)N[C@@H](C)C(=O)N[C@@H](C)C(=O)N[C@@H](C)C(=O)N[C@@H](C)C(=O)O [compound 12] | 3.2 µM | 47 µM |  |  |
| C[C@H](N)C(=O)N[C@@H](CCC(=O)O)C(=O)N[C@@H](Cc1ccc(O)cc1)C(=O)N[C@@H](C)C(=O)N[C@@H](CCCCN)C(=O)N[C@@H](C)C(=O)N[C@@H](C)C(=O)N[C@@H](C)C(=O)N[C@@H](C)C(=O)N[C@@H](C)C(=O)N[C@@H](C)C(=O)N[C@@H](C)C(=O)N[C@@H](C)C(=O)N[C@@H](C)C(=O)N[C@@H](C)C(=O)O [compound 32] | 3 µM |  |  |  |
| C[C@H](NC(=O)[C@H](C)NC(=O)[C@H](C)NC(=O)[C@H](C)NC(=O)[C@H](CCCCN)NC(=O)[C@H](C)NC(=O)[C@H](C)NC(=O)[C@H](C)NC(=O)[C@H](C)NC(=O)[C@H](C)NC(=O)[C@H](C)NC(=O)[C@H](Cc1ccc(O)cc1)NC(=O)[C@H](CCCCN)NC(=O)[C@H](CCCCN)NC(=O)[C@@H](N)CCC(=O)O)C(=O)O [compound 17] (H-EKKYAAAAAAKAAAA-OH) | 1.8 µM |  |  |  |
| C[C@H](N)C(=O)N[C@@H](CCC(=O)O)C(=O)N[C@@H](CCCCN)C(=O)N[C@@H](C)C(=O)N[C@@H](Cc1ccc(O)cc1)C(=O)N[C@@H](C)C(=O)N[C@@H](C)C(=O)N[C@@H](C)C(=O)N[C@@H](C)C(=O)N[C@@H](C)C(=O)N[C@@H](C)C(=O)N[C@@H](C)C(=O)N[C@@H](C)C(=O)N[C@@H](C)C(=O)N[C@@H](C)C(=O)O [compound 33] | < 1 µM |  |  |  |
